Data on 47 substances can be found in patent publication US10517889B2, “Modulators of SMAD7 expression” (Ionis Pharmaceuticals, Inc., priority 2017, dated 2019).

Strand notation (5' to 3'): a small letter for the sugar, then the base; units joined by * are phosphorothioate-linked, units joined directly phosphodiester-linked; [ ] holds rarer units or linkages, { } end groups; capitals alone tell only the bases. k = constrained ethyl (cEt); [5mC] = 5-methylcytosine; d = 2'-deoxy (DNA)

In this series the test system is human SMAD7 mRNA. Description: Antisense inhibition of human SMAD7 mRNA expression in Hep3B cells by 3-10-3 cEt gapmers, 10,000 nM, electroporation (Example 2). In kind it is cell-based. The conditions noted are these: approximately 24 hours. Summed up: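 Hep3B, 20,000 cells/well; electroporation, 10,000 nM ASO; ~24 h. Readout: SMAD7 mRNA by qRT-PCR (RTS5062), RIBOGREEN-normalised; % inhibition vs untreated.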

[1] abbreviates: Hep3B cells, electroporation with 10,000 nM antisense oligonucleotide, SMAD7 mRNA by RT-PCR (RTS5062), relative to untreated control cells.
Setting [2] is: Hep3B cells, 10,000 nM antisense oligonucleotide, electroporation, RT-PCR primer probe set RTS5062, relative to untreated control cells.
Setting [3] is: Hep3B cells, electroporation with 10,000 nM antisense oligonucleotide, primer probe set RTS5062, relative to untreated control cells.
The mark [4] stands for this setting: SMAD7 mRNA, Hep3B cells, electroporation with 10,000 nM antisense oligonucleotide, primer probe set RTS5062, relative to untreated control cells.
Setting [5] is: Hep3B cells, electroporation, 10,000 nM antisense oligonucleotide, RTS5062, relative to untreated control cells.
[6] abbreviates: SMAD7 mRNA, Hep3B cells, 10,000 nM antisense oligonucleotide, electroporation, primer probe set RTS5062, relative to untreated control cells.

“798664 (kG*kG*k[5mC]*d[5mC]*dT*dG*d[5mC]*dG*d[5mC]*dT*d[5mC]*d[5mC]*dG*kG*k[5mC]*kT; antisense) [compound 798664]”: the % Inhibition (usually the drop in the measured response relative to a control, in per cent) under setting [1] came out at 7%.

In the case of “798911 (kG*k[5mC]*kA*d[5mC]*dG*d[5mC]*dG*dG*d[5mC]*dT*dA*d[5mC]*d[5mC]*kG*kG*k[5mC]; antisense) [compound 798911]”, the “% Inhibition” value under setting [2] worked out at 0%.

On to “800009 (kT*kG*k[5mC]*dT*d[5mC]*dA*dT*dG*dA*dA*dT*dG*dA*kA*k[5mC]*kA; antisense) [compound 800009]”, for which, under setting [1], the “% Inhibition” value was 51%.

With “830040 (antisense k[5mC]*kA*k[5mC]*dT*dT*d[5mC]*d[5mC]*dT*dA*dT*dT*dG*dG*k[5mC]*kT*kG) [compound 830040]”, the “% Inhibition” value under setting [1] is 44%.

On to “799050 (antisense kA*k[5mC]*kA*dG*dG*d[5mC]*d[5mC]*d[5mC]*dG*dT*dG*dT*d[5mC]*k[5mC]*kT*kT) [compound 799050]”, for which the “% inhibition of SMAD7 mRNA expression” value under setting [3] is 36%.

With “800029 (k[5mC]*k[5mC]*kT*dG*dA*dA*dT*d[5mC]*dG*dG*dG*d[5mC]*d[5mC]*k[5mC]*kA*k[5mC]; antisense) [compound 800029]”, the “% Inhibition” value under setting [2] was determined as 0%.

With “800040 (k[5mC]*kG*k[5mC]*d[5mC]*dA*dG*d[5mC]*dA*dA*dT*dG*dT*dG*k[5mC]*kT*kG; antisense) [compound 800040]”, under setting [1], the “% Inhibition” value was found to be 15%.

“772717 (kA*k[5mC]*kT*d[5mC]*d[5mC]*dT*dT*dT*dA*dG*dA*dA*dA*kA*kA*k[5mC]; antisense) [compound 772717]”: the “% inhibition of SMAD7 mRNA expression” value under setting [3] is reported as 28%.

As for “799913 (antisense kG*kG*k[5mC]*d[5mC]*dT*d[5mC]*dA*dG*dA*dG*dG*dA*dA*kG*kG*kG) [compound 799913]”, the “% Inhibition” value under setting [2] was 18%.

Consider “799490 (antisense kT*kT*kA*dA*dA*dT*dG*dG*dT*dG*dT*dA*dT*kA*k[5mC]*k[5mC]) [compound 799490]”, for which the “% Inhibition” value under setting [1] came to 0%.

For the substance “830183 (antisense k[5mC]*kG*kG*dT*dT*dG*d[5mC]*d[5mC]*dT*d[5mC]*dA*dT*d[5mC]*k[5mC]*kT*kG) [compound 830183]”, under setting [1], the “% Inhibition” value was 47%.

Consider “829944 (k[5mC]*k[5mC]*kA*dG*dT*dT*dA*dA*dT*d[5mC]*dA*dT*dT*kA*k[5mC]*kT; antisense) [compound 829944]”, for which the “% Inhibition” value under setting [4] is given as 23%.

“799336 (kA*k[5mC]*kT*dG*d[5mC]*dA*dG*dG*dA*dG*d[5mC]*dA*dG*kT*kG*k[5mC]; antisense) [compound 799336]”: the “% Inhibition” value under setting [1] was 25%.

“799640 (k[5mC]*kA*kA*dG*dG*dA*d[5mC]*d[5mC]*dT*dG*dT*dT*d[5mC]*kT*kG*kG; antisense) [compound 799640]”: the “% inhibition of SMAD7 mRNA expression” value under setting [5] turned out to be 40%.

Consider “830034 (antisense kG*kG*k[5mC]*dT*dG*dA*dT*d[5mC]*dT*dG*dG*dA*dG*kA*kA*k[5mC]) [compound 830034]”, for which the “% Inhibition” value under setting [1] came to 30%.

For “799778 (kG*k[5mC]*kA*d[5mC]*dA*d[5mC]*d[5mC]*dT*dT*d[5mC]*d[5mC]*dA*dA*kG*k[5mC]*kA; antisense) [compound 799778]”, the “% inhibition of SMAD7 mRNA expression” value under setting [5] is reported as 10%.

As to “829859 (antisense kT*kT*kT*dT*dG*d[5mC]*dT*d[5mC]*d[5mC]*dG*d[5mC]*dA*d[5mC]*k[5mC]*kT*kT) [compound 829859]”, under setting [4], the “% Inhibition” value is given as 39%.

On to “799449 (antisense k[5mC]*kA*kG*d[5mC]*dA*d[5mC]*dT*dG*d[5mC]*dA*dT*d[5mC]*dG*kG*kA*kA) [compound 799449]”, for which, under setting [1], the “% Inhibition” value was 37%.

On to “798873 (kG*k[5mC]*kT*dG*dT*dA*d[5mC]*dG*d[5mC]*d[5mC]*dT*dT*d[5mC]*kT*k[5mC]*kG; antisense) [compound 798873]”, for which, under setting [2], the “% Inhibition” value came to 27%.

Regarding “790496 (kG*k[5mC]*kA*dG*dA*dG*dT*d[5mC]*dG*dG*d[5mC]*dT*dA*kA*kG*kG; antisense) [compound 790496]”, the “% Inhibition” value under setting [1] is recorded as 42%.

With “830169 (antisense k[5mC]*kT*k[5mC]*dT*dG*dT*dT*dT*dG*dG*dA*d[5mC]*dA*kA*kG*kT) [compound 830169]”, the “% Inhibition” value under setting [1] amounted to 58%.

Consider “799151 (antisense kA*kG*k[5mC]*d[5mC]*dT*dA*dG*dG*dA*dT*dG*dG*dT*kA*k[5mC]*k[5mC]) [compound 799151]”, for which, under setting [3], the “% inhibition of SMAD7 mRNA expression” value is reported as 39%.

As for “799241 (kA*kT*kT*d[5mC]*dT*d[5mC]*d[5mC]*dG*dT*dA*dT*dT*dT*kA*k[5mC]*kT; antisense) [compound 799241]”, the “% Inhibition” value under setting [1] came to 16%.

Consider “799086 (antisense kG*kG*k[5mC]*dA*dG*d[5mC]*d[5mC]*d[5mC]*dT*dT*dG*dG*dG*kA*kA*kG) [compound 799086]”, for which the “% inhibition of SMAD7 mRNA expression” value under setting [3] was determined as 0%.

With “800047 (antisense kA*k[5mC]*k[5mC]*d[5mC]*dA*d[5mC]*dT*dG*dA*dA*dA*d[5mC]*d[5mC]*kT*kG*kG) [compound 800047]”, the “% Inhibition” value under setting [1] was 28%.

On to “798916 (k[5mC]*kG*k[5mC]*dT*d[5mC]*dT*dG*dT*d[5mC]*d[5mC]*d[5mC]*d[5mC]*dT*k[5mC]*k[5mC]*kG; antisense) [compound 798916]”, for which the “% Inhibition” value under setting [1] is on record as 13%.

As for “798886 (kT*k[5mC]*kT*dG*d[5mC]*dA*d[5mC]*dG*dG*dT*dA*dA*dA*kG*k[5mC]*k[5mC]; antisense) [compound 798886]”, under setting [1], the “% Inhibition” value is given as 29%.

On to “799219 (kT*kG*kG*d[5mC]*dA*dT*dT*dT*dG*dT*dT*dA*dT*kT*kT*kG; antisense) [compound 799219]”, for which the “% Inhibition” value under setting [3] amounted to 0%.

In the case of “800073 (antisense kT*kA*kA*dG*dT*dA*dG*dG*dA*dG*d[5mC]*d[5mC]*dA*kG*k[5mC]*kG) [compound 800073]”, the “% Inhibition” value under setting [2] amounted to 39%.

Regarding “799476 (antisense kG*k[5mC]*kT*d[5mC]*dA*dA*dA*dG*dG*dG*d[5mC]*d[5mC]*dA*k[5mC]*k[5mC]*k[5mC]) [compound 799476]”, under setting [3], the “% inhibition of SMAD7 mRNA expression” value is reported as 0%.

Regarding “799231 (kG*k[5mC]*kT*dA*dG*dG*dT*dG*dA*dT*dA*dA*d[5mC]*kA*k[5mC]*k[5mC]; antisense) [compound 799231]”, the “% inhibition of SMAD7 mRNA expression” value under setting [3] was 8%.

As to “790754 (k[5mC]*kT*kA*dA*dG*d[5mC]*dT*dA*d[5mC]*dT*dT*dG*dG*kT*kT*kT; antisense) [compound 790754]”, under setting [6], the “% Inhibition” value came to 38%.

For the substance “829720 (antisense kG*k[5mC]*kG*d[5mC]*d[5mC]*dA*dG*dT*d[5mC]*dT*d[5mC]*d[5mC]*d[5mC]*kG*kG*kA) [compound 829720]”, under setting [6], the “% Inhibition” value stood at 14%.

Consider “799451 (antisense kA*kA*kA*dG*dA*dA*d[5mC]*dA*d[5mC]*dA*dG*d[5mC]*dA*k[5mC]*kT*kG) [compound 799451]”, for which the “% Inhibition” value under setting [1] amounted to 41%.

Turning to “799901 (antisense kA*kG*kT*d[5mC]*dA*dA*dG*dT*d[5mC]*dT*d[5mC]*dT*dT*kA*k[5mC]*k[5mC]) [compound 799901]”, the “% Inhibition” value under setting [1] is recorded as 31%.

With “798668 (kT*k[5mC]*k[5mC]*dG*dT*dG*dG*d[5mC]*dA*dT*dG*d[5mC]*dG*k[5mC]*k[5mC]*kA; antisense) [compound 798668]”, the “% Inhibition” value under setting [1] is 45%.

With “799135 (antisense kG*kG*kG*dA*d[5mC]*dT*dG*d[5mC]*dT*dA*dA*dG*d[5mC]*kA*kT*kG) [compound 799135]”, under setting [3], the “% Inhibition” value amounted to 38%.

As to “799164 (antisense kT*k[5mC]*kG*dA*dA*dG*dT*dA*dT*d[5mC]*dA*dT*dA*k[5mC]*kG*kA) [compound 799164]”, the “% inhibition of SMAD7 mRNA expression” value under setting [3] amounted to 37%.

With “829906 (antisense k[5mC]*k[5mC]*kG*dG*d[5mC]*dT*dG*dT*dT*dG*dA*dA*dG*kA*kT*kG) [compound 829906]”, the “% Inhibition” value under setting [4] turned out to be 0%.

Consider “790516 (kG*kT*kA*dA*d[5mC]*dT*dG*d[5mC]*dT*dG*d[5mC]*dG*dG*kT*kT*kG; antisense) [compound 790516]”, for which the “% Inhibition” value under setting [6] is given as 45%.

Consider “800798 (antisense k[5mC]*k[5mC]*kT*dG*dG*dA*dG*dT*d[5mC]*d[5mC]*dG*dG*dG*kT*kT*kG) [compound 800798]”, for which, under setting [6], the “% Inhibition” value was 36%.

In the case of “800004 (kT*kT*kT*dT*dA*dA*dT*dT*dT*dG*dA*dA*dG*kG*k[5mC]*kG; antisense) [compound 800004]”, the “% Inhibition” value under setting [1] was found to be 8%.

Consider “799613 (kT*k[5mC]*kA*d[5mC]*dA*dT*dT*d[5mC]*dG*dG*d[5mC]*dT*dG*kT*kT*kT; antisense) [compound 799613]”, for which, under setting [5], the “% inhibition of SMAD7 mRNA expression” value was 17%.

Consider “830149 (antisense kA*kG*kG*dA*d[5mC]*dT*dG*dG*dT*d[5mC]*dT*dT*d[5mC]*kA*k[5mC]*k[5mC]) [compound 830149]”, for which, under setting [1], the “% Inhibition” value amounted to 47%.

For “829895 (antisense kT*k[5mC]*kA*d[5mC]*dA*dA*dA*dG*d[5mC]*dT*dG*dA*dT*k[5mC]*kT*kG) [compound 829895]”, the “% Inhibition” value under setting [4] is 37%.

Consider “772642 (kT*kA*k[5mC]*d[5mC]*dG*dG*d[5mC]*dT*dG*dT*dT*dG*dA*kA*kG*kA; antisense) [compound 772642]”, for which the “% Inhibition” value under setting [1] was found to be 0%.

As for “800107 (antisense kA*kA*kT*d[5mC]*dT*dA*dG*dA*dA*dA*dA*d[5mC]*dA*k[5mC]*kA*kT) [compound 800107]”, the “% Inhibition” value under setting [1] came to 0%.
